In patent US8129367B2, “Compounds for the treatment of Hepatitis C” (Bristol-Myers Squibb Company, priority 2007, dated 2012):
pEC50, pIC50: −log10 of the molar value.

Legend:
HCV NS5B = molecular target: T1, HCV NS5B (Hepatitis C virus genotype 1b, UniProt Q9WMX2); assay: HCV NS5B RdRp enzyme assay; type: biochemical; conditions: HCV NS5B RdRp genotype 1b enzyme
T1 construct: The protein was expressed with an 18 amino acid C-terminal truncation to enhance the solubility; made in house; host or cells: E. coli BL21(DE3)
Procedure: HCV NS5B RdRp cloning, expression, and purification. The cDNA encoding the NS5B protein of HCV, genotype 1b, was cloned into the pET21a expression vector. The protein was expressed with an 18 amino acid C-terminal truncation to enhance the solubility. The E. coli competent cell line BL21(DE3) was used for expression of the protein. Cultures were grown at 37° C. for ˜4 hours until the cultures reached an optical density of 2.0 at 600 nm. The cultures were cooled to 20° C. and induced with 1 mM IPTG. Fresh ampicillin was added to a final concentration of 50 μg/ml and the cells were grown overnight at 20° C.
Cell pellets (3 L) were lysed for purification to yield 15-24 mgs of purified NS5B. The lysis buffer consisted of 20 mM Tris-HCl, pH 7.4, 500 mM NaCl, 0.5% triton X-100, 1 mM DTT, 1 mM EDTA, 20% glycerol, 0.5 mg/ml lysozyme, 10 mM MgCl2, 15 ug/ml deoxyribonuclease I, and Complete™ protease inhibitor tablets (Roche). After addition of the lysis buffer, frozen cell pellets were resuspended using a tissue homogenizer. To reduce the viscosity of the sample, aliquots of the lysate were sonicated on ice using a microtip attached to a Branson sonicator. The sonicated lysate was centrifuged at 100,000×g for 1 hr at 4° C. and filtered through a 0.2 μm filter unit (Corning).
The protein was purified using two sequential chromatography steps: Heparin sepharose CL-6B and polyU sepharose 4B (Pharmacia). The chromatography buffers were identical to the lysis buffer but contained no lysozyme, deoxyribonuclease I, MgCl2 or protease inhibitor and the NaCl concentration of the buffer was adjusted according to the requirements for charging the protein onto the column. Each column was eluted with a NaCl gradient which varied in length from 5-50 column volumes depending on the column type. After the final chromatography step, the resulting purity of the enzyme is >90% based on SDS-PAGE analysis. The enzyme was aliquoted and stored at −80° C.
Standard HCV NS5B RdRp enzyme assay. HCV RdRp genotype 1b assays were run in a final volume of 60 μl in 96 well plates (Corning 3600). The assay buffer is composed of 20 mM Hepes, pH 7.5, 2.5 mM KCl, 2.5 mM MgCl2, 1 mM DTT, 1.6 U RNAse inhibitor (Promega N2515), 0.01 mg/ml BSA (Sigma B6917), and 2% glycerol. All compounds were serially diluted (3-fold) in DMSO and diluted further in water such that the final concentration of DMSO in the assay was 2%. HCV RdRp genotype 1b enzyme was used at a final concentration of 28 nM. A polyA template was used at 6 nM, and a biotinylated oligo-dT12 primer was used at 180 nM final concentration. Template was obtained commercially (Amersham 27-4110). Biotinylated primer was prepared by Sigma Genosys. 3H-UTP was used at 0.6 μCi (0.29 μM total UTP). Reactions were initiated by the addition of enzyme, incubated at 30° C. for 60 min, and stopped by adding 25 μl of 50 mM EDTA containing SPA beads (4 μg/μl, Amersham RPNQ 0007). Plates were read on a Packard Top Count NXT after >1 hr incubation at room temperature.
Modified HCV NS5B RdRp enzyme assay. A modified enzyme assay was performed essentially as described for the standard enzyme assay except for the following: The biotinylated oligo dT12 primer was precaptured on streptavidin-coated SPA beads by mixing primer and beads in assay buffer and incubating at room temperature for one hour. Unbound primer was removed after centrifugation. The primer-bound beads were resuspended in 20 mM Hepes buffer, pH 7.5 and used in the assay at final concentrations of 20 nM primer and 0.67 μg/μl beads. Order of addition in the assay: enzyme (1.75 nM) was added to diluted compound followed by the addition of a mixture of template (0.36 nM), 3H-UTP (0.6 μCi, 0.29 μM), and primer-bound beads, to initiate the reaction; concentrations given are final. Reactions were allowed to proceed for 4 hours at 30° C.
IC50 values for compounds were determined using seven different [I]. […]

HCV replicon cells = assay: HCV replicon FRET / luciferase assay; type: cell-based; conditions: Hepatitis C virus; 50% reduction in FRET or luciferase activity in HCV replicon cells
Procedure: FRET Assay Preparation. The HCV FRET screening assay was performed in 96-well cell culture plates. The FRET peptide (Anaspec, Inc.) (Taliani et al., Anal. Biochem. 1996, 240, 60-67) contains a fluorescence donor, EDANS, near one end of the peptide and an acceptor, DABCYL, near the other end. The fluorescence of the peptide is quenched by […] resonance energy transfer (RET) between the donor and the acceptor, but as the NS3 protease cleaves the peptide the products are released from RET quenching and the fluorescence of the donor becomes apparent. The assay reagent was made as follows: 5× cell Luciferase cell culture lysis reagent from Promega (#E153A) diluted to 1× with dH2O, NaCl added to 150 mM final, the FRET peptide diluted to 20 μM final from a 2 mM stock.
To prepare plates, HCV replicon cells, with or without a Renilla luciferase reporter gene, were trypsinized and plated in a 96-well plate with titrated test compounds added in columns 3 through 12; columns 1 and 2 contained a control compound (HCV control inhibitor), and the bottom row contained cells with DMSO only. The plates were then placed in a CO2 incubator at 37° C.
Assays. Subsequent to addition of the test compounds described above (FRET Assay Preparation), at various times the plate was removed and Alamar blue solution (Trek Diagnostics, #00-100) was added to measure cellular toxicity. After reading in a Cytoflour 4000 instrument (PE Biosystems), plates were rinsed with PBS and then used for FRET assay by the addition of 30 ul of the FRET peptide assay reagent described above (FRET Assay Preparation) per well. The plate was then placed into the Cytoflour 4000 instrument which had been set to 340 excite/490 emission, automatic mode for up to 20 cycles and the plate read in a kinetic mode. Typically, the signal to noise using an endpoint analysis after the reads was at least three-fold. Alternatively, after Alamar blue reading, plates were rinsed with PBS, then used for luciferase assay using the Promega Dual-Glo Luciferase Assay System or the Promega EnduRen Live Cell Substrate assay.
Compound analysis was performed by quantification of the relative HCV replicon inhibition and the relative cytotoxicity values. To calculate cytoxicity values, the average Alamar Blue fluorescence signals from the control wells were set as 100% non-toxic. The individual signals in each of the compound test wells were then divided by the average control signal and multiplied by 100% to determine […]. To calculate the HCV replicon inhibition values, an average background value was obtained from the two wells containing the highest amount of HCV control inhibitor at the end of the assay period. These numbers were similar to those obtained from naïve Huh-7 cells. The background numbers were then subtracted from the average signal obtained from the control wells and this number was used as 100% activity. The individual signals in each of the compound test wells were then divided by the averaged control values after background subtraction and multiplied by 100% to determine percent activity. EC50 values were calculated as the concentration which caused a 50% reduction in FRET or luciferase activity. The two numbers generated for the compound plate, percent cytoxicity and percent activity, were used to determine compounds of interest for further analysis.

T1 sequence (Q9WMX2 2420-2992): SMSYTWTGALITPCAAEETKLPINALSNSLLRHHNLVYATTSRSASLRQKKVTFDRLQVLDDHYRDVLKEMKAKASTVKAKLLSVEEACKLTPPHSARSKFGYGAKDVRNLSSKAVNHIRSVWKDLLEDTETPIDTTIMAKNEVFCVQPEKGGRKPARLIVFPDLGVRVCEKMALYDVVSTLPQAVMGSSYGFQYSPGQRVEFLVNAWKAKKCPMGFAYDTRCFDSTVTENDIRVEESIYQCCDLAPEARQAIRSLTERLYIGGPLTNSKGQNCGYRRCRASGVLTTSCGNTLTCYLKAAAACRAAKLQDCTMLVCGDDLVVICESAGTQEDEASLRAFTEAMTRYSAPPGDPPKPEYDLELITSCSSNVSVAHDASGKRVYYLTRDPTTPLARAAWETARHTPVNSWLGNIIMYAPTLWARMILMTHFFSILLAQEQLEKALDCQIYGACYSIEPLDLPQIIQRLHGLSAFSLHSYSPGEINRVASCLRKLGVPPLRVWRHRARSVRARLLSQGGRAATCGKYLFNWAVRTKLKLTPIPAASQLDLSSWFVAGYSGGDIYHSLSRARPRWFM

Compound | pIC50 (HCV NS5B) | pEC50 (HCV replicon cells)
CCC1(S(=O)(=O)NC(=O)c2ccc3c(C4CCCCC4)c4n(c3c2)CC2(C(=O)N3C5CCC3CN(C)C5)CC2c2cc(OC)ccc2-4)CC1 (stereo not shown) | 6.30 to 8.38 | 6.30 to 8.38
COc1ccc2c(c1)C1CC1(C(=O)N1C3CCC1CN(C)C3)Cn1c-2c(C2CCCCC2)c2ccc(C(=O)NS(=O)(=O)C3(CC4CC4)CC3)cc21 (stereo not shown) | 6.30 to 8.38 | 6.30 to 8.38
COc1ccc2c(c1)C1CC1(C(=O)N1C3CCC1CN(C)C3)Cn1c-2c(C2CCCCC2)c2ccc(C(=O)NS(=O)(=O)c3nc(C(C)(C)C)cs3)cc21 (stereo not shown) | 6.30 to 8.38 | 6.30 to 8.38
COc1ccc2c(c1)C1CC1(C(=O)N1C3CCC1CN(C)C3)Cn1c-2c(C2CCCCC2)c2ccc(C(=O)NS(=O)(=O)C3(C)CC3)cc21 (stereo not shown) | 6.30 to 8.38 | 6.30 to 8.38
C=C(C)S(=O)(=O)NC(=O)c1ccc2c(C3CCCCC3)c3n(c2c1)CC1(C(=O)N2C4CCC2CN(C)C4)CC1c1cc(OC)ccc1-3 (stereo not shown) | 6.30 to 8.38 | 6.30 to 8.38
COc1ccc2c(c1)C1CC1(C(=O)N1C3CCC1CN(C)C3)Cn1c-2c(C2CCCCC2)c2ccc(C(=O)NS(=O)(=O)c3cccc4cccnc34)cc21 (stereo not shown) | 6.30 to 8.38 | 6.30 to 8.38
COCCS(=O)(=O)NC(=O)c1ccc2c(C3CCCCC3)c3n(c2c1)C[C@@]1(C(=O)N2C4CCC2CN(C)C4)C[C@H]1c1cc(OC)ccc1-3 | 6.30 to 8.38 | 6.30 to 8.38
COc1ccc2c(c1)[C@@H]1C[C@]1(C(=O)N1C3CCC1CN(C)C3)Cn1c-2c(C2CCCCC2)c2ccc(C(=O)NS(=O)(=O)CC3CCCO3)cc21 (stereo partly shown) | 6.30 to 8.38 | 6.30 to 8.38
COc1ccc2c(c1)C1CC1(C(=O)N1C3CCC1CN(C)C3)Cn1c-2c(C2CCCCC2)c2ccc(C(=O)NS(=O)(=O)Cc3ccccn3)cc21 (stereo not shown) | 6.30 to 8.38 | 6.30 to 8.38
COc1ccc2c(c1)C1CC1(C(=O)N1C3CCC1CN(C)C3)Cn1c-2c(C2CCCCC2)c2ccc(C(=O)NS(=O)(=O)Cc3cccc(Cl)c3)cc21 (stereo not shown) | 6.30 to 8.38 | 6.30 to 8.38
COc1ccc2c(c1)C1CC1(C(=O)N1C3CCC1CN(C)C3)Cn1c-2c(C2CCCCC2)c2ccc(C(=O)NS(=O)(=O)Cc3cc(Cl)cc(Cl)c3)cc21 (stereo not shown) | 6.30 to 8.38 | 6.30 to 8.38
COc1ccc2c(c1)C1CC1(C(=O)N1C3CCC1CN(C)C3)Cn1c-2c(C2CCCCC2)c2ccc(C(=O)NS(=O)(=O)c3sc(C)nc3C)cc21 (stereo not shown) | 6.30 to 8.38 | 6.30 to 8.38
COc1ccc2c(c1)C1CC1(C(=O)N1C3CCC1CN(C)C3)Cn1c-2c(C2CCCCC2)c2ccc(C(=O)NS(=O)(=O)c3nc[nH]n3)cc21 (stereo not shown) | 6.30 to 8.38 | 6.30 to 8.38
C=CS(=O)(=O)NC(=O)c1ccc2c(C3CCCCC3)c3n(c2c1)CC1(C(=O)N2C4CCC2CN(C)C4)CC1c1cc(OC)ccc1-3 (stereo not shown) | 6.30 to 8.38 | 6.30 to 8.38
COc1ccc2c(c1)C1CC1(C(=O)N1C3CCC1CN(C)C3)Cn1c-2c(C2CCCCC2)c2ccc(C(=O)NS(=O)(=O)C=C(C)C)cc21 (stereo not shown) | 6.30 to 8.38 | 6.30 to 8.38
COc1ccc2c(c1)C1CC1(C(=O)N1C3CCC1CN(C)C3)Cn1c-2c(C2CCCCC2)c2ccc(C(=O)NS(=O)(=O)c3ncccn3)cc21 (stereo not shown) | 6.30 to 8.38 | 6.30 to 8.38
COc1ccc2c(c1)C1CC1(C(=O)N1C3CCC1CN(C)C3)Cn1c-2c(C2CCCCC2)c2ccc(C(=O)NS(=O)(=O)c3nc(C)cc(C)n3)cc21 (stereo not shown) | 6.30 to 8.38 | 6.30 to 8.38
